Measured values: US4748185A, “4-hydroxycoumarin derivatives” (priority 1985, dated 1988)
Like-named read-outs stand apart in the source and are kept apart here.

Key:
test animal (rat) = assay: Acute oral LD50; assay type: in vivo; conditions: polyethylene glycol 200/triethanolamine 9:1 w/w
Protocol: For some compounds, LD50 data has also been generated, as follows.
Compounds were dissolved in a mixture of polyethylene glycol 200 and triethanolamine (9:1 w/w) and serially diluted with the same solvent system to given concentrations of: 10.0, 4.64, 2.15, 1.00, 0.464, 0.215, 0.10, milligrammes per milliliter (mgml^-1).
As these concentrations represent a known number of milligrammes per milliliter, administration of any solution to the test animal at the rate of 1 milliliter per 1 kilogramme of bodyweight delivers a dose (in mgkg^-1) numerically equivalent to the concentration of that solution.
Thus appropriate doses were a range of four consecutive oral doses from the series of concentration sufficient to cause low group mortality at the lowest dose, and high group mortality at the highest dose. Acute oral LD50 's were then determined by reference to the tables in Horns' paper "Simplified LD50 (or ED50) Calculations", Biometrics, 12, 311-322.

prothrombin time = assay: Anticoagulant activity by measurement of the prothrombin time (3-day ED50, intraperitoneal, modified one-step method of Quick); assay type: in vivo, Wistar-strain male rats; conditions: Rattus norvegicus, S100, ip, 72 h, read-out: 3-day ED50
Protocol: Anticoagulant activity of the compounds of Examples 1 to 11 was determined by measurement of the prothrombin time, which is a measure of blood-clotting properties and is a reliable indicator of efficacy for an anticoagulant rodenticide. The procedure for measurement of prothrombin time is based on Quick et al, Am. J. Med. Sci., 190, 501 to 511, 1935.
Prothrombin times were determined according to the following specific procedures. Test compounds were dissolved in a mixture of polyethylene glycol 200 (i.e. polyethylene glycol of average molar mass 200) and triethanolamine (9:1 w/w) and serially diluted with the same solvent system to give concentrations of; 5.0, 2.5, 1.0, 0.9, 0.8, 0.7, 0.6, 0.5, 0.45, 0.40, 0.35, 0.30, 0.25, 0.2 and 0.1 milligrammes per milliliter (mgml^-1).
As these concentrations represent a known number of milligrammes per milliliter administration of any solution to the test animal at the rate of 1 milliliter per 1 kilogramme of bodyweight (eg. a 250 g rat is administered 0.25 ml) delivers a dose (in mg kg^-1) numerically equivalent to the concentration of that solution. In this instance the terms concentration and dose are synonymous.
Thus, appropriate doses were a range of at least three consecutive doses from the above series of concentrations which it was estimated would induce a range of prothrombin time elevations between 0 to 100% such that a dose-response curve could be constructed for that analogue.
The doses were injected into test animals (200 to 250 g Wistar-strain male rats) by the interperitoneal route. Three days after injection, blood was withdrawn by cardiac puncture whilst the animals were held under "Halothane" anaesthesia.
Three rats were used in each test of a particular compound and three prothrombin time determinations were carried out on each blood sample. Prothrombin times were determined using the modified one-step method of Quick. The percentage extension time of each prothrombin time was determined by assigning 0% extension time to an arbitrary prothrombin resting time of 12 seconds, and 100% extension time to a prothrombin time elevated to an arbitrary 212 seconds. Results were plotted on log-probability graph paper, the best-line fitted, and the prothrombin time ED50 read from the graph.

[1] = prothrombin time ED50, single intraperitoneal injection, male Wistar rats, blood taken three days after injection, 0% = 12 s, 100% = 212 s

SMILES	LD50 (test animal (rat)) [mg/kg]	ED50 (prothrombin time) [mg/kg]	ED50 (prothrombin time; [1]) [mg/kg]
O=c1oc2ccccc2c(O)c1C1CC(c2ccc(-c3ccccc3)cc2)Cc2ccccc21 (stereo not drawn) [Difenacoum, reference compound]	1.80	0.56	
O=c1oc2ccccc2c(O)c1C1CC(c2ccc(-c3ccc(OCc4ccc(C(F)(F)F)cc4)cc3)cc2)Cc2ccccc21 (stereo not drawn) [Example 1, 3-{3-[4'-(4-trifluoromethylbenzyloxy)biphenyl-4-yl]-1,2,3,4-tetrahydro-1-naphthyl}-4-hydroxycoumarin]	0.32 to 0.4		0.4
N#Cc1ccc(COc2ccc(-c3ccc(C4Cc5ccccc5C(c5c(O)c6ccccc6oc5=O)C4)cc3)cc2)cc1 (stereo not drawn) [Example 2, 3-{3-[4'-(4-cyanobenzyloxy)biphenyl-4-yl]-1,2,3,4-tetrahydro-1-naphthyl}-4-hydroxycoumarin]			1.6
O=c1oc2ccccc2c(O)c1C1CC(c2ccc(-c3ccc(OCc4ccc(Br)cc4)cc3)cc2)Cc2ccccc21 (stereo not drawn) [Example 3, 3-{3-[4'-(4-bromobenzyloxy)biphenyl-4-yl]-1,2,3,4-tetrahydro-1-naphthyl}-4-hydroxycoumarin]	0.4 to 1.0		0.74
O=c1oc2ccccc2c(O)c1C1CC(c2ccc(-c3ccc(-c4ccccc4)cc3)cc2)Cc2ccccc21 (stereo not drawn) [Example 4, 3-[3-(4'-terphenyl-4-yl)-1,2,3,4-tetrahydro-1-naphthyl]-4-hydroxycoumarin]	1.0		0.55
O=c1oc2ccccc2c(O)c1C1CC(c2ccc(OCc3ccc(-c4ccccc4)cc3)cc2)Cc2ccccc21 (stereo not drawn) [Example 5, 3-{3-[4-(4-phenylbenzyloxy)phenyl]-1,2,3,4-tetrahydro-1-naphthyl}-4-hydroxycoumarin]	0.4 to 1.0		0.4
O=c1oc2ccccc2c(O)c1C1CC(c2ccc(OCc3ccc(-c4ccc(Br)cc4)cc3)cc2)Cc2ccccc21 (stereo not drawn) [Example 6, 3-{3-[4-(4'-bromobiphenyl-4-ylmethoxy)phenyl]-1,2,3,4-tetrahydro-1-naphthyl}-4-hydroxycoumarin]			0.72
O=c1oc2ccccc2c(O)c1C1CC(c2ccc(Oc3ccc(-c4ccc(Cl)cc4)cc3)cc2)Cc2ccccc21 (stereo not drawn) [Example 7, 3-{3-[4-(4'-chlorobiphenyl-4-yloxy)phenyl]-1,2,3,4-tetrahydro-1-naphthyl}-4-hydroxycoumarin]			0.36
O=c1oc2ccccc2c(O)c1C1CC(c2ccc(Cc3ccc(-c4ccc(Br)cc4)cc3)cc2)Cc2ccccc21 (stereo not drawn) [Example 8, 3-{3-[4-(4'-bromobiphenyl-4-ylmethyl)phenyl]-1,2,3,4-tetrahydro-1-naphthyl}-4-hydroxycoumarin]			0.37
O=c1oc2ccccc2c(O)c1C1CC(c2ccc(OCc3ccc(-c4ccc(-c5ccccc5)cc4)cc3)cc2)Cc2ccccc21 (stereo not drawn) [Example 9, 3-{3-[4-(4-biphenyl-4-ylbenzyloxy)phenyl]-1,2,3,4-tetrahydro-1-naphthyl}-4-hydroxycoumarin]			0.49
O=c1oc2ccccc2c(O)c1C1CC(c2ccc(Cc3ccc(-c4ccccc4)cc3)cc2)Cc2ccccc21 (stereo not drawn) [Example 10, 3-{3-[4-(biphenyl-4-ylmethyl)phenyl]-1,2,3,4-tetrahydro-1-naphthyl}-4-hydroxycoumarin]			0.52
O=c1oc2ccccc2c(O)c1C1CC(c2ccc(Oc3ccc(-c4ccccc4)cc3)cc2)Cc2ccccc21 (stereo not drawn) [Example 11, 3-{3-[4-(biphenyl-4-yloxy)phenyl]-1,2,3,4-tetrahydro-1-naphthyl}-4-hydroxycoumarin]			0.55
CC(=O)CC(c1ccccc1)c1c(O)c2ccccc2oc1=O (stereo not drawn) [Warfarin, 3-(α-acetonylbenzyl)-4-hydroxycoumarin, reference compound]			5.2
